Melting point and IC50 data for 5 compounds are collected here from patent US20100120736A1, “Mineralocorticoid Receptor Antagonists” (N.V. ORGANON, priority 2007, published 2010).

Data set [1] addresses T1, mineralocorticoid receptor (MR) (Rattus norvegicus, UniProt P22199).
T1 sequence (P22199 1-981): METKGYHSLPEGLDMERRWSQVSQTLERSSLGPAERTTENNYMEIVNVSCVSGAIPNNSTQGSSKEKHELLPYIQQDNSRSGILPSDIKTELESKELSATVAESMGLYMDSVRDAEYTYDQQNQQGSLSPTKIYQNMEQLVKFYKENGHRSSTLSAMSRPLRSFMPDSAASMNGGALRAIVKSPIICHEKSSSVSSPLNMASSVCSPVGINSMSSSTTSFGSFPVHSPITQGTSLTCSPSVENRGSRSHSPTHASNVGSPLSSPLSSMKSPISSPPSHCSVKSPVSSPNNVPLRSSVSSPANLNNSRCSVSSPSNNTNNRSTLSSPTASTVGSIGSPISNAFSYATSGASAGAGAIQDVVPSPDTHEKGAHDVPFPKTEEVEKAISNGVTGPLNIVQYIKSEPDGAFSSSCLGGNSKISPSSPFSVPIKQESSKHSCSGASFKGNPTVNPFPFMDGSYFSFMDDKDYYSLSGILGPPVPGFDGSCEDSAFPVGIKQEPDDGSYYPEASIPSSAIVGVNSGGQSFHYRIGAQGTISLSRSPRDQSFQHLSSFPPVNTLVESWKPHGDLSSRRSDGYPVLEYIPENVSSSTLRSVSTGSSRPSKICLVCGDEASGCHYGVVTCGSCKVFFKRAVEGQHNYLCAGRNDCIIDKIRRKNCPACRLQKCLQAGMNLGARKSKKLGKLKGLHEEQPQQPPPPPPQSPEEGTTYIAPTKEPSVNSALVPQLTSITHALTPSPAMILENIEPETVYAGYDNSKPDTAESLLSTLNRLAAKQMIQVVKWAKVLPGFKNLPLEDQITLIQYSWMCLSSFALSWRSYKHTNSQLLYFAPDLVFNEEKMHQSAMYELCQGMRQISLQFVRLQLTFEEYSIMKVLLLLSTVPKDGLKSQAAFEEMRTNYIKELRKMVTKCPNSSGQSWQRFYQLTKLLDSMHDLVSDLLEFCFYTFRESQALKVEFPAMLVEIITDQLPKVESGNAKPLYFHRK
The experiment in a line: In vitro binding to mineralocorticoid receptor (MR), displacement of tritiated aldosterone. The note with it: read-out: Mineralocorticoid receptor Antagonist activity IC50. The source says:
In vitro binding to the mineralocorticoid receptor (MR) was essentially carried out as reported in the literature (C. E. Gomez-Sanchez and E. P. Gomez-Sanchez, Endocrinology 113 (1983) 1004-1009, Z. S. Krozowski and J. W. Funder, Proc. Natl. Acad. Sci. USA 80 (1983) 6056-; J. H. M. H. Reul and E. R. de Kloet, Endocrinology 117 (1985) 2505-2511; K. E. Sheppard and J. W. Funder, J. Steroid Biochem. 28 (1987) 737-742).
Male Wistar rats Were adrenalectomised and perfused with cold saline after 3 days of survival. Kidneys and hippocampi, respectively, were rapidly dissected and homogenized. A cylosolic fraction was prepared by centrifugation.
Unlabeled RU 28362 (10 nM), a specific GR binder, was added for saturating glucocorticoid receptors. Compounds to be tested, dissolved in DMF and diluted with water to obtain the required concentration, were added in an increasing concentration range (1.0-1000 nM) and allowed to incubate for 3 h. Incubations were terminated by adding dextran-coated charcoal suspension, followed by centrifugation. The supernatant was assayed with a scintillation counter for unbound labelled ligand.

For orientation: melting point means the temperature of the solid-liquid transition. `C=C(C)[C@H]1CC[C@H]2[C@@H]3C=CC4=CC(=O)CC[C@]4(C)[C@H]3[C@@H](O)C[C@]12C`: the melting point was in the range of 153 to 155 °C. A word on the IC50: it is the concentration needed to halve the response being measured. Take `C[C@]12C[C@H](O)[C@H]3[C@@H](CCC4=CC(=O)CC[C@@]43C)[C@@H]1CC[C@@H]2C(=O)CO` [Corticosterone, reference compound]: the IC50 in data set [1] was determined as 5 nM.

Consider `CC(=O)S[C@@H]1CC2=CC(=O)CC[C@]2(C)[C@H]2CC[C@@]3(C)[C@@H](CC[C@@]34CCC(=O)O4)[C@H]12` [Spironolactone, reference compound], for which the IC50 in data set [1] stood at 6 nM.

Consider `C=C(C)[C@H]1CC[C@H]2[C@@H]3CCC4=CC(=O)CC[C@]4(C)[C@H]3[C@@H](O)C[C@]12C` [synthetic example 1, (11β)-11-hydroxy-20-methylpregna-4,20-dien-3-one], for which the IC50 in data set [1] was 0.44 nM. As to `CC[C@H]1CC[C@H]2[C@@H]3CCC4=CC(=O)C=C[C@]4(C)[C@H]3[C@@H](O)C[C@]12C` [synthetic example 14, (11β)-11-hydroxypregna-1,4-dien-3-one], the IC50 in data set [1] amounted to 0.12 nM.
